{"source": "patent EP4613273A1", "about": "“TREATMENT OF BONE LOSS” (priority 2024, dated 2025)", "test": "Tolerance, hematology, biochemistry and calcium during 90-day treatment in dogs with periodontal disease", "assay_type": "in vivo", "set-up": "Platelet: unit not given here", "details": "for Alanine transferase / Albumin / Albumin/Globulin ratio / Alkalin phosphatase / BUN/Creatinine ratio / Basophil / Creatinine / Eosinophil / Globulin / Glucose / HCT / HGB / Lymphocyte / MCH / MCHC / MCV / Monocyte / Neutrophil / Platelet / RBC / Reticulocyte / Total calcium / Total protein / Urea: mean", "experimental": "The present study was performed on 10 Beagle dogs suffering from alveolar bone loss induced by spontaneously developed periodontal disease. All dogs were treated with MIV-701 besylate salt for minimum 30 day and maximum 90 days, depending on the tolerance at intermediate visits. The product is administrated to the dog by its owner at home, once a day with a meal.\nThere were two treatment groups: • Group A (5 dogs) with a dose of 25 mg/kg. • Group B (5 dogs) with a dose of 50 mg/kg.\nTreatment was administrated for 90 days. Every 30 days, based on the results of clinical exam, blood parameters and potential occurrence of adverse events suspected to be drug-related, the treatment prolongation for another 30 days, or discontinuation of treatment was decided by the Investigator.\nWhole blood sample for hematology analysis was collected at visit V1 (between Day -7 and Day 0), visit V3 (Day 30+3 days), Visit V4 (Day 60t 3 days) and Visit V5 (Day 90t 3 days).\nThe result from visit V1 (between Day -7 and Day 0) was used as a baseline value for the safety evaluation criteria.\nEach time 1 ml of the peripheral whole blood was collected on a tube with anti-coagulant (EDTA) and gently inverted several times. A complete blood count: WBC with details of lymphocytes, monocytes and polynuclear cells (neutrophils, eosinophils and basophils); Red blood cells (RBC); Hematocrit (HCT); Hemoglobin (HGB); Reticulocytes (RETIC); Mean corpuscular volume (MCV); Mean Corpuscular Hemoglobin (MCH); Mean Corpuscular Hemoglobin Concentration (MCHC); platelets count (PLT) was performed.\nWhole blood sample for biochemistry analysis was collected at visit V1 (between Day -7 and Day 0), visit V3 (Day 30+3 days), Visit V4 (Day 60t 3 days) and Visit V5 (Day 90t 3 days).\nEach time 1.3 ml of the peripheral whole blood was collected on lithium heparin tube and gently inverted several times. Next, sample was centrifuged at 2500 G for 5 minutes at room temperature and heparin plasma will be collected. The following biochemical parameters: Albumin, Alanine transaminase (ALT), Alkaline phosphatase (ALP), creatinine, globulins, glucose, Total proteins, Urea, Albumin/globulin ratio and urea/creatinine ratio were analyzed.", "key": {"[1]": {"details": "dogs with periodontal disease, 90-day treatment"}, "[2]": {"details": "Day 30, 25 or 50 mg/kg/day oral"}, "[3]": {"details": "Day 60, 25 or 50 mg/kg/day oral"}, "[4]": {"details": "Day 90, all dogs 50 mg/kg/day for last 30 days"}}, "note": "Structures can show the parent of a compound that is named as a salt."}
{"smiles": "CC(C)C[C@H](NC(=O)c1ccc(-c2csc(N3CCN(C)CC3)n2)cc1)C(=O)N1C[C@H](F)[C@H]2OCC(O)(O)[C@H]21", "note": "[MIV-701 besylate salt, N-[(S)-1-((3aS,6S,6aS)-6-Fluoro-S-oxo-hexahydro-furo[3,2-b]pyrrole-4-carbony)-3-methyl-butyl]-4-[2-(4-methyl-piperazin-1-yl)-thiazol-4-yl]-benzamide benzenesulphonate]", "values": [{"measurement": "death and Serious Adverse Event (SAE)", "setting": "[1]", "value": "No death and no Serious Adverse Event (SAE)"}, {"measurement": "evolution of blood cell count and clinical biochemistry parameters", "setting": "[1]", "value": "No safety concern"}, {"measurement": "tolerance", "setting": "dogs with periodontal disease, once-a-day 25 and 50 mg/kg/day, 90-day treatment period", "value": "well tolerated"}, {"measurement": "Alanine transferase", "setting": "[2]", "value": "37,9 U/L"}, {"measurement": "Albumin", "setting": "[2]", "value": "26,3 g/L"}, {"measurement": "Albumin/Globulin ratio", "setting": "[2]", "value": "0,61"}, {"measurement": "Alkalin phosphatase", "setting": "[2]", "value": "31,5 U/L"}, {"measurement": "BUN/Creatinine ratio", "setting": "[2]", "value": "17,8"}, {"measurement": "Basophil", "setting": "[2]", "value": "0,03 10^9/L"}, {"measurement": "Creatinine", "setting": "[2]", "value": "57,8 µmol/L"}, {"measurement": "Eosinophil", "setting": "[2]", "value": "1,3 10^9/L"}, {"measurement": "Globulin", "setting": "[2]", "value": "43,6 g/L"}, {"measurement": "Glucose", "setting": "[2]", "value": "5,3 mmol/L"}, {"measurement": "HCT", "setting": "[2]", "value": "41,8%"}, {"measurement": "HGB", "setting": "[2]", "value": "14,2 g/DL"}, {"measurement": "Lymphocyte", "setting": "[2]", "value": "1,7 10^9/L"}, {"measurement": "MCH", "setting": "[2]", "value": "21,5 pg"}, {"measurement": "MCHC", "setting": "[2]", "value": "33,9 g/DL"}, {"measurement": "MCV", "setting": "[2]", "value": "63,5 fL"}, {"measurement": "Monocyte", "setting": "[2]", "value": "0,8 10^9/L"}, {"measurement": "Neutrophil", "setting": "[2]", "value": "7,7 10^9/L"}, {"measurement": "Platelet", "setting": "[2]", "value": "381,3"}, {"measurement": "RBC", "setting": "[2]", "value": "6,6 10^12/L"}, {"measurement": "Reticulocyte", "setting": "[2]", "value": "32,0 K/µL"}, {"measurement": "Total calcium", "setting": "[2]", "value": "2,4 mmol/L"}, {"measurement": "Total protein", "setting": "[2]", "value": "7,0 g/dL"}, {"measurement": "Urea", "setting": "[2]", "value": "4,0 mmol/L"}, {"measurement": "Alanine transferase", "setting": "[3]", "value": "41,7 U/L"}, {"measurement": "Albumin", "setting": "[3]", "value": "26,9 g/L"}, {"measurement": "Albumin/Globulin ratio", "setting": "[3]", "value": "0,65"}, {"measurement": "Alkalin phosphatase", "setting": "[3]", "value": "31,6 U/L"}, {"measurement": "BUN/Creatinine ratio", "setting": "[3]", "value": "21,7"}, {"measurement": "Basophil", "setting": "[3]", "value": "0,03 10^9/L"}, {"measurement": "Creatinine", "setting": "[3]", "value": "62,7 µmol/L"}, {"measurement": "Eosinophil", "setting": "[3]", "value": "1,2 10^9/L"}, {"measurement": "Globulin", "setting": "[3]", "value": "40,6 g/L"}, {"measurement": "Glucose", "setting": "[3]", "value": "5,7 mmol/L"}, {"measurement": "HCT", "setting": "[3]", "value": "40,0%"}, {"measurement": "HGB", "setting": "[3]", "value": "13,6 g/DL"}, {"measurement": "Lymphocyte", "setting": "[3]", "value": "1,7 10^9/L"}, {"measurement": "MCH", "setting": "[3]", "value": "21,8 pg"}, {"measurement": "MCHC", "setting": "[3]", "value": "33,8 g/DL"}, {"measurement": "MCV", "setting": "[3]", "value": "64,6 fL"}, {"measurement": "Monocyte", "setting": "[3]", "value": "0,7 10^9/L"}, {"measurement": "Neutrophil", "setting": "[3]", "value": "7,0 10^9/L"}, {"measurement": "Platelet", "setting": "[3]", "value": "384,8"}, {"measurement": "RBC", "setting": "[3]", "value": "6,2 10^12/L"}, {"measurement": "Reticulocyte", "setting": "[3]", "value": "22,9 K/µL"}, {"measurement": "Total calcium", "setting": "[3]", "value": "2,3 mmol/L"}, {"measurement": "Total protein", "setting": "[3]", "value": "6,8 g/dL"}, {"measurement": "Urea", "setting": "[3]", "value": "5,4 mmol/L"}, {"measurement": "Alanine transferase", "setting": "[4]", "value": "36,8 U/L"}, {"measurement": "Albumin", "setting": "[4]", "value": "28,3 g/L"}, {"measurement": "Albumin/Globulin ratio", "setting": "[4]", "value": "0,65"}, {"measurement": "Alkalin phosphatase", "setting": "[4]", "value": "45,4 U/L"}, {"measurement": "BUN/Creatinine ratio", "setting": "[4]", "value": "22,8"}, {"measurement": "Basophil", "setting": "[4]", "value": "0,02 10^9/L"}, {"measurement": "Creatinine", "setting": "[4]", "value": "60,2 µmol/L"}, {"measurement": "Eosinophil", "setting": "[4]", "value": "1,2 10^9/L"}, {"measurement": "Globulin", "setting": "[4]", "value": "43,0 g/L"}, {"measurement": "Glucose", "setting": "[4]", "value": "5,7 mmol/L"}, {"measurement": "HCT", "setting": "[4]", "value": "40,1%"}, {"measurement": "HGB", "setting": "[4]", "value": "13,6 g/DL"}, {"measurement": "Lymphocyte", "setting": "[4]", "value": "1,7 10^9/L"}, {"measurement": "MCH", "setting": "[4]", "value": "22,2 pg"}, {"measurement": "MCHC", "setting": "[4]", "value": "33,8 g/DL"}, {"measurement": "MCV", "setting": "[4]", "value": "65,7 fL"}, {"measurement": "Monocyte", "setting": "[4]", "value": "0,9 10^9/L"}, {"measurement": "Neutrophil", "setting": "[4]", "value": "8,3 10^9/L"}, {"measurement": "Platelet", "setting": "[4]", "value": "423,0"}, {"measurement": "RBC", "setting": "[4]", "value": "6,2 10^12/L"}, {"measurement": "Reticulocyte", "setting": "[4]", "value": 29.5, "unit": "K/µL"}, {"measurement": "Total calcium", "setting": "[4]", "value": "2,4 mmol/L"}, {"measurement": "Total protein", "setting": "[4]", "value": "7,1 g/dL"}, {"measurement": "Urea", "setting": "[4]", "value": "5,4 mmol/L"}, {"measurement": "dogs with one episode of diarrhea of mild intensity for 2 days", "setting": "of 10 dogs, spontaneously resolved under treatment", "value": 2, "unit": "dogs"}]}
